According to PubChem BioAssay (NCI):
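1) Cells in 96-well plates. 2) Compound, 48 h, 5 concentrations. 3) Linear interpolation between surrounding doses. 4) Unreached endpoint = highest concentration. At the TGI there is no net growth.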

Key:
Experiment in all cases: NCI tumour cell line growth inhibition, 48 h
[1] = tested on: LOX IMVI melanoma
[2] = tested on: ACHN renal
[3] = tested on: CAKI-1 renal
[4] = tested on: KM20L2 colon
[5] = tested on: KM12 colon
[6] = tested on: DLD-1 colon
[7] = tested on: HOP-92 NSCLC
[8] = tested on: HOP-62 NSCLC
[9] = tested on: HCT-116 colon
[10] = tested on: OVCAR-8 ovarian

| Structure (SMILES) | TGI [1] [µM] | TGI [2] [µM] | TGI [3] [µM] | TGI [4] [µM] | TGI [5] [µM] | TGI [6] [µM] | TGI [7] [µM] | TGI [8] [µM] | TGI [9] [µM] | TGI [10] [µM] |
| --- | --- | --- | --- | --- | --- | --- | --- | --- | --- | --- |
| COC(=O)C1=C(C(=O)OC)SC(=CC#CC=C2SC(C(=O)OC)=C(C(=O)OC)S2)S1 | 44.2 | 34.6 | > 68.3 | 71.6 | > 100 | > 54 | 35.2 | 12.2 | 32.3 | 20.8 |
| CCOC(=O)c1s/c(=N\Nc2nc3ccccc3cc2C2OCCO2)n(Cc2ccccc2)c1C | > 100 | > 100 | > 100 | > 100 | > 100 | > 100 | > 100 | > 100 | > 100 | > 100 |
